From ChEMBL document CHEMBL1135895, “Stereochemistry at phosphorus of the reaction catalyzed by myo-inositol monophosphatase” (J Med Chem, 2002)

Experiments:
[1] = IMPase-catalyzed hydrolysis at pH 9.00 at 25 degrees Centigrade.; format: ADME; conditions: for Km / k cat: buffer
[2] = Oxidation catalyzed by inositol dehydrogenase at pH 9.13.; format: ADME

Row | SMILES | Km [1] [µM] | k cat [1] [s⁻¹] | Ki [1] [µM] | Km [2] [µM] | k cat [2] [s⁻¹] | k cat/Km [2] [M⁻¹ s⁻¹]
1 | O=P(O)(O)OC1C(O)C(O)C(O)C(O)C1O (stereo not drawn) | 110 | 0.48 |  |  |  | 
2 | OC1C(O)C(O)C(OP(O)(O)=S)C(O)C1O (stereo not drawn) | 2070 | 0.185 | 1140 |  |  | 
3 | O[C@H]1[C@H](O)[C@@H](O)[C@H](O)[C@@H](O)[C@H]1O [INOSITOL] |  |  |  | 580 | 13.3 | 23100
